Reference: patent US20230372244A1, “Methods of Preparing Cell-Derived Vesicles” (NATIONAL UNIVERSITY OF SINGAPORE, priority 2020, published 2023)
Counter-ions that a name gives are not always drawn.

Legend:
[1] = system: patient-derived tumor xenografts; assay: Patient-derived tumor xenografts in NSG mice, DOX and/or PEMF; format: in vivo; conditions: 20 mg/kg DOX intravenously and/or PEMF 1 h weekly for 5 weeks
Experimental: (A) Schematic of PEMF and DOX exposures regimes used on mice hosting patient-derived tumor xenografts. Implanted tumors were allowed to grow for 3 weeks before the initiation of DOX and/or PEMF treatments. Tumor volumes were measured each week while apoptotic cell determination was performed at the end of the study. Each data point represents the mean from 5 experimental runs derived from the tumors obtained from 5 patients, each of which was equally divided amongst the 5 treatment groups. (B) Changes in tumor volume (mm^3) for 5 weeks. (C) Representative scatter dot-plots showing cell population of dissociated tumors sorted based on annexin and propidium iodide staining. (D) Bar chart represents pooled data of apoptotic cell percentages analyzed using flow cytometry. N=5 mice, with *, p<0.05, **, p<0.01, and #p<0.0001. The error bars are expressed as the standard error of the mean.
The NSG mice were purchased from Jackson's laboratory and used at 8-10 weeks of age. Briefly, each female NSG mouse was implanted with a subcutaneous 60-day (0.36 mg) slow-release estradiol pellet (Innovative Research of America). Each patient tumor was equally divided into 5 chunks and implanted into the dorsal flank of 5 animals corresponding to the 5 different treatment groups. […] At the end of the study, tumor volume was measured and isolated for apoptotic cell determination. […]

MCF-7 cells [2] = assay: Cyquant DNA content of MCF-7 cells after DOX and PEMF; format: cell-based; conditions: DOX 100 nM; 3 mT PEMF 1 h daily for 3 days
Experimental: (§1) FIG. 13. […] (A) Schematic of PEMF and DOX treatment regime for DNA quantification. Cells were exposed to 3 mT for 1 h daily for 3 successive days. DOX (100 nM) was administered on the final day 1 h before the last PEMF exposure. Cellular DNA content was measured 24 h after the last PEMF exposure. (B) Bar chart of pooled data for Cyquant DNA content in fold change 24 h post-DOX and PEMF treatments. (C) Colony formation paradigm for MCF-7 cells treated with DOX and PEMFs. (D) MCF-7 colony formation in the presence of 10 and 20 nM DOX, with and without PEMF exposure as indicated. Cells were seeded at a low density of 100 cells per well. (E) Colony survival in 10 nM DOX under low-density conditions. […] (F) MCF-7 colony formation in the presence of 10 and 20 nM DOX, with and without PEMF exposure under high-density seeding of 1000 cells per well. The images on the right are the zoom-in images of cells under the same treatment paradigm. […] (H) Absolute DCH2FDA-ROS fluorescence from MCF-7 cells. […]
(§2) For cell enumeration using trypan blue exclusion assay, MCF-7, MDA-MB-231, or MCF10A cells were seeded at 6000 cells/cm^2 per well of a 6-well plate. […] Cyquant stained DNA was measured using at 480/520 nm using Cytation 5 microplate reader (BIOTEK).

MCF-7 cells [3] = assay: Clonogenic assay of MCF-7 cells with DOX and PEMF; format: cell-based; conditions: 20 nM DOX, low density of 100 cells per well
Experimental: as §1, with “well.” for “well. The images on the right are the zoom-in images of cells under the same treatment paradigm.”
In vitro clonogenic assay was performed using crystal violet staining (24). […] The mean survival factor (colony count) was determined as the number of surviving cells over the number of cells plated and normalized to the survival factor of the control group expressed as fold change. The colony size relative frequency was determined by binning colonies into several bins, according to their relative size from the smallest to the largest colonies after normalizing to the total number of cells.

MCF-7 xenograft = MCF-7 xenograft in mice, DOX and/or PEMF; format: in vivo; conditions: weekly PEMF and DOX exposures
Experimental: (A) Schematic of weekly PEMF and DOX exposures on MCF-7 xenograft in mice. Implanted cells were allowed to grow for 3 weeks before the initiation of DOX and/or PEMF treatment. Apoptotic cell determination was performed at the end of the study. […] N=6 mice, with *, p<0.05, **, p 1137<0.01, and #, p<0.0001. The error bars are expressed as the standard error of the mean.
The NSG mice were purchased from Jackson's laboratory and used at 8-10 weeks of age. Briefly, each female NSG mouse was implanted with a subcutaneous 60-day (0.36 mg) slow-release estradiol pellet (Innovative Research of America). […] The tumors were allowed to grow for 3 weeks. For MCF-7, 1×10^6 cells were counted and mixed in a 40-60% ratio with Matrigel Growth Factor (Bio Laboratories, Cat No. 354230). The cells are injected subcutaneously into the dorsal flank of the animals corresponding to the different treatment groups. The animals were given 20 mg/kg DOX intravenously and/or PEMFs stimulation for 1 h weekly for 5 weeks. At the end of the study, tumor volume was measured and isolated for apoptotic cell determination.
For apoptotic cell determination, the tumors were dissociated to single cells using the MACS Tumor Dissociation Kit in combination with the gentleMACS Dissociator (Miltenyi Biotec) as according to the manufacturer's protocol. After dissociation, the cells were filtered through a 30 μm MACS SmartStrainer. […]

MCF-7/TRPC1 cells = assay: DNA content and colony formation of TRPC1 overexpressing MCF-7 cells with DOX and PEMF; format: cell-based; conditions: TRPC1 overexpression versus vector cells
Experimental: FIG. 17. […] (A) PEMF and DOX treatment regime for MCF-7/TRPC1 cell DNA quantification. (B) DNA fold change relative to 0 mT vector cells. Statistical analysis was done using the two-sample t-test. (C) Colony formation after 10 days in the presence of 0 nM, 10 nM or 20 nM DOX, without PEMF exposure. Images of colony formation and the quantification of colony size frequency distribution normalized to the total number of colonies in the presence of 10 nM DOX for (D) vector and (E) MCF-7/TRPC1 cells or 20 nM DOX for (F) vector and (G) MCF-7/TRPC1 cells, concomitant with daily PEMF exposure. *, p<0.05, **, p<0.01 and ***, p<0.001 indicate the statistical difference between the respective 0 mT and 3 mT condition within the same bin. (H) PEMF-modulated proliferation of TRPC1-silenced MCF-7 cells 48 h post dsiRNA transfection. […]
as §2
In vitro clonogenic assay was performed using crystal violet staining (24). […] The mean survival factor (colony count) was determined as the number of surviving cells over the number of cells plated and normalized to the survival factor of the control group expressed as fold change. […]

TRPA1 = biological target: T1, TRPA1 (Mus musculus, UniProt Q8BLA8); assay: TRP channel functional assessment of immobilized CDVs (menthol, Fluo-4 calcium signal); format: biochemical, Murine; conditions: Fluo-4 loaded myoblast-derived CDVs on microfluidic chip; versus CDVs not administered menthol
T1 construct: containing Fluo-4 loaded myoblast-derived CDVs from the same culture; endogenous in cells
Source text: FIG. 1. Schematic depicting the tests applied to CDVs to ascertain 1) innate channel functionality and 2) recuperative potential for cellular respiratory and proliferative capacities. 1) Cell-free assays were comprised of examining specific TRP channel activation by menthol (TRPA1) or magnetic fields (TRPC1). 2) Cell-based assays entailed administering wild type CDVs to TRPC1-knockdown myoblasts followed by testing for recuperation of cellular proliferative and mitochondrial respiratory capacities.
FIG. 4. A) Schematics of the CDV immobilization 1), loading 2), and TRP channel functional assessment 3). […] Red fluorescence is Texas Red as part of the biochemical linker, the dotted line indicates the edge of the print. […] Data were simultaneously recorded from 3 parallel channels of the same microfluidic chip containing Fluo-4 loaded myoblast-derived CDVs from the same culture, 2 channels with menthol administration and one without (negative control). […] Representative calcium responses (Rate of Rise (ROR) normalized to starting value) from intact C2C12 myoblasts D) or CDVs E) derived from wild type C2C12 myoblasts (left) or C2C12 CRISPR/Cas9 knockdown myoblasts, 60 (middle), and 61 (right), in response to 10 min magnetic field exposure (1.5 mT) while in suspension immediately before reading. […]

T1 sequence (Q8BLA8 whole entry): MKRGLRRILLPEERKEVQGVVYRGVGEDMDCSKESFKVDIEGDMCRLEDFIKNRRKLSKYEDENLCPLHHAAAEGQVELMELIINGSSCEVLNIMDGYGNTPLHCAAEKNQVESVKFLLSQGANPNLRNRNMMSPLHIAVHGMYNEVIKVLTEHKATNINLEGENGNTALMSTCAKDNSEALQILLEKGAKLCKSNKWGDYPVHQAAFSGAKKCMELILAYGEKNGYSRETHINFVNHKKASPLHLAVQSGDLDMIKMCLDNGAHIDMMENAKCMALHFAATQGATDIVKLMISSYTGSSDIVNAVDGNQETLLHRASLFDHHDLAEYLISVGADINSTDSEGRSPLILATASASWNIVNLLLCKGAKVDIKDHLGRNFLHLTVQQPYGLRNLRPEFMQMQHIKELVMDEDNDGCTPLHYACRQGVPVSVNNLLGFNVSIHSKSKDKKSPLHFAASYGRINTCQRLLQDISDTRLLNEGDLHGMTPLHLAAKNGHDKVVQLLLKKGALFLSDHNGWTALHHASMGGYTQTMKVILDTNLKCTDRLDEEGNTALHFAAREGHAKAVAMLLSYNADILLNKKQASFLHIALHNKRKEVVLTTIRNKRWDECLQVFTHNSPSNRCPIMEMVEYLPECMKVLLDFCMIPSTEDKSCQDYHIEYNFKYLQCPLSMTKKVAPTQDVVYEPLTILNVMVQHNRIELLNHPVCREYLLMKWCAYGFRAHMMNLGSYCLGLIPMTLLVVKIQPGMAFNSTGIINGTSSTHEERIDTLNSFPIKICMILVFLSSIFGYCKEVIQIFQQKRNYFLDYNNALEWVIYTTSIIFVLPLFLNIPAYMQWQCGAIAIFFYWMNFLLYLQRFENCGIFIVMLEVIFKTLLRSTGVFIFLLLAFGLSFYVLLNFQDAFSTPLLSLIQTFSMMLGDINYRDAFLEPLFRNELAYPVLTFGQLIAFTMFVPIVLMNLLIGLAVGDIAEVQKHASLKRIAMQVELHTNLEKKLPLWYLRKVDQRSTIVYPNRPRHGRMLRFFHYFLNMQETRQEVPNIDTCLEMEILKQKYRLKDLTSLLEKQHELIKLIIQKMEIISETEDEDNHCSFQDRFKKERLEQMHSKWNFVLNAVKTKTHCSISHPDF

SMILES | tumor growth [1] | MCF-7 cell vulnerability to doxorubicin (DNA content) (MCF-7 cells [2]) | colony number (MCF-7 cells [3]) | MCF-7 tumor growth (MCF-7 xenograft) | sensitivity of MCF-7 cells to doxorubicin (MCF-7/TRPC1 cells) | intra-CDV calcium concentration (TRPA1)
COc1cccc2c1C(=O)c1c(O)c3c(c(O)c1C2=O)C[C@@](O)(C(=O)CO)C[C@@H]3O[C@H]1C[C@H](N)[C@H](O)[C@H](C)O1 [DOX, Doxorubicin hydrochloride] | synergize with DOX to inhibit tumor growth in vivo | enhances MCF-7 cell vulnerability to doxorubicin | too few to quantify accurately | synergize with doxorubicin to inhibit MCF-7 tumor growth in vivo | TRPC1 overexpression sensitizes MCF-7 cells to doxorubicin | –
CC1CCC(C(C)C)C(O)C1 (stereo not drawn) [Menthol, menthol] | – | – | – | – | – | increases in intra-CDV calcium concentration
